What all share (assay): inhibition of tumour cell growth, NCI panel, 48 h
Assay [1] concerns NCI/ADR-RES ovarian.
The subject of assay [2] is SN12C renal.
The test system of assay [3] is TK-10 renal.
Assay [4] relates to RXF 393 renal.
The test system of assay [5] is HT29 colon.
For assay [6], the system named is UACC-62 melanoma.
The subject of assay [7] is SF-295 CNS.
Assay [8] relates to OVCAR-5 ovarian.
In assay [9] the test system is SK-OV-3 ovarian.
For assay [10], the system named is HL-60(TB) leukemia.

Each structure is given as a SMILES string.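 Growth conditions: 96-well plates. Treatment: test compound, 48 hours, 5 concentrations. Analysis: linear interpolation between bracketing concentrations; unreached endpoints set to highest concentration. Abbreviation: GI50, concentration required for 50% inhibition of growth. TGI: total growth inhibition.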 A value given as a limit tells only on which side of the number the result lay.

In the case of `O=C(Nc1ccccc1)c1cc2ccccc2c(N=Nc2cccc([N+](=O)[O-])c2)c1O`, the TGI in [1], in [2], in assay [3], in assay [4], in [5] and in [6] was > 100 µM in each case. Also, the TGI in assay [7], in assay [8] and in assay [9] was > 100 µM in each case.
As to `C1=N[C@]23C(=N[C@H](N=C2NCc2ccco2)[C@]24N=CNC2=N[C@H]3N=C4NCc2ccco2)N1`, the GI50 in [1] was > 100 µM; in assay [2] it was > 100 µM; in assay [3], > 100 µM; in [4] it was > 100 µM; in assay [5], > 100 µM; in assay [10], > 100000 nM. For the same molecule, the GI50 in [6], in [7], in assay [8] and in [9] was > 100 µM throughout. The TGI in assay [1], in assay [2], in [3], in assay [4], in assay [5] and in assay [10] was > 100 µM throughout. The TGI in assay [6], in assay [7], in [8] and in assay [9] was > 100 µM throughout.
`Cc1c(C)c2c(c(C)c1OC(=O)CCC(=O)[O-])CCC(C)(CCCCCCCCCCC[P+](c1ccccc1)(c1ccccc1)c1ccccc1)O2` (stereo unspecified): the GI50 in assay [1] was 5.62 µM; in [2] it was 0.165 µM; in assay [3] it was 0.244 µM; in [5], 0.166 µM; in [10] it was 140 nM; in [6] it was 0.177 µM. For the same molecule, the results for the GI50 in [8] and in [9] were 0.22 µM and 0.157 µM, respectively. The TGI worked out at 22 µM in assay [1]; 0.615 µM in [2]; 1.18 µM in [3]; 2.07 µM in assay [5]; 0.566 µM in assay [10]; 0.727 µM in assay [6]. Moreover, the results for the TGI in assay [8] and in assay [9] were 0.836 µM and 0.538 µM, respectively.
As to `O=C([CH-]C(=O)c1ccccc1)c1ccccc1.[C-]#[O+].[C-]#[O+].[Ir]`, the GI50 in assay [2] was 48.3 µM; in assay [3] it was > 100 µM; in [4], 33.6 µM; in assay [5], 63.5 µM; in [6], 42.1 µM; in assay [7], 42.9 µM. Besides, the GI50 in assay [8] and in assay [9] was > 100 µM each time. The TGI in [2], in assay [3], in [4], in [5], in assay [6] and in assay [7] was > 100 µM each time. The TGI in assay [8] and in assay [9] was > 100 µM each time.
As to `C=C1CC[C@@]2(C)[C@@H]([C@@H]1C)[C@H]1CC[C@@H]3[C@@]4(C)CC[C@H](O)C(C)(C)[C@@H]4CC[C@@]3(C)[C@]1(C)C[C@@H]2O`, the TGI was 14.2 µM in assay [1]; > 100 µM in assay [2]; 27 µM in [3]; 4.04 µM in assay [4]; 19.6 µM in [5]; > 55.7 µM in assay [10]. Also, the TGI came out at 28.2 µM in [6], 12.2 µM in [7], 17.7 µM in assay [8] and 51.3 µM in [9].
In the case of `CON(C)c1nc(N)c(C#N)c(C#N)c1C#N`, the TGI in [1], in [2], in [3], in assay [4], in [5] and in assay [10] was > 10 µM throughout. For the same molecule, the TGI in assay [6], in assay [7], in assay [8] and in assay [9] was > 10 µM throughout.
Regarding `C[C@@H]1C[C@H]2OC(=O)[C@@]3(C)CCC[C@@](C)([C@@H]23)[C@@]1(O)CCc1ccoc1`, the TGI is > 100 µM in assay [1]; > 100 µM in assay [2]; > 100 µM in assay [3]; > 100 µM in assay [4]; > 100 µM in assay [5]; > 88.6 µM in [10]. The TGI in assay [6], in assay [7], in assay [8] and in assay [9] was > 100 µM in each case.
Consider `COc1cccc(N/C(C)=C2/CCOC2=O)c1`, for which the TGI in [1], in assay [2], in assay [3], in assay [4], in assay [5] and in assay [10] was > 10 µM throughout. In addition, the TGI in assay [6], in assay [7], in assay [8] and in assay [9] was > 10 µM each time.

For the origin of these results see PubChem BioAssay (NCI).
